In the METLIN SMRT retention time set (Domingo-Almenara et al. 2019):

Assay: gradient 5% acetonitrile 3 min, to 50% in 2 min, to 85% in 15 min, held 3 min, 100 µL/min
Conditions: column: Zorbax Extend-C18 2.1 x 50 mm; eluents: water / acetonitrile, 0.1% formic acid
Outline: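 The system's dead and dwell volumes were 40 μL and 900 μL, with a Zorbax Extend-C18 column (2.1 × 50 mm, 1.8 μm) run at 100 μL/min in water and acetonitrile containing 0.1% formic acid each. Pure standards were analyzed in mixtures of ~100 molecules by HPLC–quadrupole time-of-flight mass spectrometry in positive and negative ionization mode. Retention time was assigned from computationally picked, manually inspected adduct peaks.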

SMILES	RP-LC retention time [s]
Cc1cc(C(=O)N2c3ccccc3CC2c2nnc(C3CC3)o2)nn1C (stereo not given)	786
COc1cc(OC)c(NC(=O)C2CCN(C(=O)C3Sc4ccccc4NC3=O)CC2)cc1Cl (stereo not given)	810
CCCCS(=O)(=O)N1CCCC(c2nnc(-c3ccc4c(c3)OCO4)o2)C1 (stereo not given)	819
COCCn1nnnc1C1CC2(CCOCC2)C(=O)N1Cc1ccc(SC)cc1 (stereo not given)	777
CN(C)c1cc2c(Nc3ccc4c(cnn4Cc4ccccc4)c3)ncnc2cn1	820
Cc1nn(C)c(C)c1CCN(C)C(=O)C1Cn2cccc2C(=O)N1C (stereo not given)	680
Cc1ccc(-c2nnc(-c3cccnc3N3CCN(C(=O)c4ccc(Br)o4)CC3)o2)cc1	1020
CCc1nnc(-c2ccc3ccn(CC(=O)NCCc4ccc(OC)c(OC)c4)c3c2)o1	760
CC(C)NC(=O)CCCN1C(=O)c2ccccc2Sc2ncccc21	674
COCCN(CC(=O)N1CCc2sccc2C1COc1cccc(F)c1)C(=O)C(C)C (stereo not given)	912
Cc1cc(C)n(C(=O)c2ccc(Cl)cc2[N+](=O)[O-])n1	927
CCN1CCCc2cc(C(=O)N3CCC4(CC3)OCCO4)sc21	603
COc1ccc(Cl)c2c(=O)c3c([nH]c12)CCN(CC(=O)Nc1ccc(C)c(Cl)c1)C3	762
COC(=O)CCSCC(=O)Nc1ccc(C)cc1C	742
COc1ccc(Cl)cc1C(=O)Nc1ccc2c(c1)C(=O)NCCO2	951
CCOC(=O)c1c(C)oc2nc(C)nc(NCc3ccccn3)c12	683
CNC(=O)c1cc(-c2ccccc2)n[nH]1	643
COc1cccc(-c2nnc(Cc3nc(-c4cccc(Cl)c4)no3)o2)c1	1090
CCOC(=O)c1c(C)oc2nc(C)nc(N3CCC(c4ccccc4)C3)c12 (stereo not given)	1130
COc1ccc(CCc2nc3nccc(-c4ccccn4)n3n2)cc1OC	752
COc1cccc(-c2nnc(SCc3cc(=O)n4c(C)csc4n3)o2)c1	840
COc1cc(OC)cc(-c2noc(CCn3nc(-c4ccccc4)ccc3=O)n2)c1	951
O=C1CCCC(=O)N1CCS(=O)(=O)Nc1ccc(Cl)c(N2CCCS2(=O)=O)c1	657
Cc1nc(-c2csc(S(=O)(=O)N3CCCC(C(=O)N4CCC5(CC4)OCCO5)C3)c2)no1 (stereo not given)	798
O=C(Cn1cnc2c(sc3nc(-c4ccccc4)ccc32)c1=O)NCc1ccc2c(c1)OCO2	950

SMILES	RP-LC retention time [s]
CCCc1ccc(S(=O)(=O)N2CCC(c3noc(-c4cccc(OC)c4)n3)CC2)cc1	1280
COc1ccc(CCNC(=O)Cn2cnc(C)cc2=O)cc1OC	574
COc1cccc(NC(=O)C2CCN(C(=O)C3Sc4ccccc4NC3=O)CC2)c1 (stereo not given)	752
O=C(Cn1c(C(F)(F)F)nc2cc3c(cc21)OCCO3)NCC1CCCO1 (stereo not given)	693
COC(=O)CCNC(=O)C1c2ccccc2C(=O)N(Cc2ccccc2)C12CCCC2 (stereo not given)	840
CCc1nnc([C@@H]2CC(F)(F)CN2C(=O)Cc2c(C)noc2C)o1	681
Cc1nc2nc(-c3ccc(Cl)cc3)nn2c(C)c1CC(=O)NC(C)C	790
CCN1C(=O)COc2ccc(-c3nc(NC(=O)c4ccncc4)sc3C)cc21	768
O=C(Cn1cnc(-c2noc(-c3ccncc3)n2)c1)NCc1ccc(F)cc1	654
OCCc1nc2ccccc2n1C/C=C/c1ccccc1	586
Cc1ccc(-c2nc(-c3ccc4c(c3)nc(C)c(=O)n4C)no2)cc1	1090
CC(Cc1ccco1)NC(=O)c1nc(Nc2ccc(F)cc2)c2ccccc2n1 (stereo not given)	855
Cc1ccc(CNC(=O)C2=C3CCCN3c3ccc(F)cc3S2(=O)=O)cc1	909
CCN(CC)C(=O)c1cnc2nc(C)ccc2c1Nc1ccc2c(c1)OCCO2	601
Cc1nn2c(CNS(=O)(=O)c3ccc(C(C)C)cc3)c(-c3ccccc3)nc2s1	1010
COc1ccc(NS(=O)(=O)c2cc(-c3c(C)noc3NC(C)=O)ccc2OC)c(OC)c1	724
Nc1nc(Nc2ccccc2)n[nH]1	637
O=C(Cc1ccc2c(c1)OCO2)Nc1ccc2scnc2c1	702
CCOc1ccc(C(=O)N2C[C@@H]3C[C@H]2C[C@@H]3NS(C)(=O)=O)cc1	658
C=CCn1c(C)c(CC(=O)NCC(C)C)c(=O)n2nc(-c3ccc(C)cc3)nc12	840
COc1ccc(-c2nnc3sc(-c4ccc(N(C)C)cc4)nn23)cc1	1200
O=C(c1ccc2c(c1)OCO2)N1CCC(F)(F)C(COCC2CC2)C1 (stereo not given)	933
CC(C)(C)c1cc(NCc2ccccn2)n2ncc(-c3ccc(Cl)cc3)c2n1	841
Cn1cnc2c(C(=O)Nc3cccc(C(F)(F)F)c3)nn(-c3ccccc3)c2c1=O	970

Now from value to compound:

RP-LC retention time [s]	SMILES
724	COCCN1C(=O)CC[C@]2(C(=O)NCc3cc(F)ccc3F)CCCC[C@@H]12
713	COc1ncccc1CNC(=O)NC1CCCCC1
662	CN1CCN(CCNC(=O)C2CCCN(c3nc4ccccc4n(Cc4ccccc4)c3=O)C2)CC1 (stereo not given)
650	CCCN1C(=O)Cc2ccccc2C1C(=O)N1CCOCC1 (stereo not given)
736	O=c1nc(SCc2csc(-c3ccccc3)n2)c2c(n1CCCO)CCC2
762	COc1ccc(NS(=O)(=O)c2cc3c(s2)CCN(C(=O)C2CC2)C3)cc1F
709	COc1ccccc1NC(=O)Cn1nc2n(c1=O)CCCCC2
877	Cc1cccc(S(=O)(=O)N2CCCC(OCc3nc(C)no3)C2)c1 (stereo not given)
588	CCOCCCNC(=O)c1ccc2c(c1)nc1n2CCCCC1
840	COc1ccc(NC(=O)C2CCN(S(=O)(=O)c3ccc4c(c3)sc(=O)n4C)CC2)c(OC)c1
819	CCCCNC(=O)C1CCN(c2ccc(Sc3cc(C)ccc3C)nn2)CC1
859	O=C(Nc1cnc(N2CCCCCC2)nc1)c1cccs1
1020	CC(C)(C)C(=O)N1CCCC(c2ccnc(-c3ccccc3)n2)C1 (stereo not given)
691	CC(C)NC(=O)C1CC(=O)N(CCc2c[nH]c3ccc(F)cc23)C1 (stereo not given)
1010	CCOc1cc(=O)n2c(c1C(=O)OCc1ccc(C)cc1)CCCCC2
690	Cc1ccc(-c2noc3ncnc(N4CCN(c5ccccn5)CC4)c23)cc1
917	O=C(NCc1ccco1)C1CCN(S(=O)(=O)c2cc(-c3noc(C4CCC4)n3)cs2)CC1
666	O=C(CCC1CCN(c2cc(NC3CC3)ncn2)CC1)NCc1cc(F)ccc1F
557	CC1CCCCN1CCNC(=O)c1csc(-c2ccc(N3CCCC3)nc2)n1 (stereo not given)
708	CNC(=O)NCCC1CCN(S(=O)(=O)c2ccc(C)cc2)CC1
616	CCOC(=O)c1c(C)c(CCC(=O)N2CCN(c3ccccn3)CC2)n(C)c1C

RP-LC retention time [s]	SMILES
601	Cc1ccc2c(Nc3ccc(F)c(Cl)c3)c(C(=O)N3CCOCC3)cnc2n1
795	COc1ccc(CNC(=O)c2ccc3c(c2)NC(=O)C2CCCCN32)c(OC)c1 (stereo not given)
725	Cc1ccc(CNS(=O)(=O)c2cc(-c3[nH]ncc3C(=O)N3CCCC3)oc2C)cc1
755	O=C(CCn1c(N2CCCC2)nc2ccsc2c1=O)NCc1ccc(F)cc1
637	CN1C(=O)CCCCC1C(=O)NCc1cccs1 (stereo not given)
642	O=C(NCC1CCCO1)C1CCN(C(=O)C2Sc3ccccc3NC2=O)CC1 (stereo not given)
679	O=C(NCc1ccc(Br)cc1)c1ccc2ncnc(N3CCCC3)c2c1
618	Cc1nc2cccnc2n1CCN1CCN(C(=O)Nc2ccc(F)c(Cl)c2)CC1
825	CC1CN(C(=O)C2CCN(S(=O)(=O)c3cccnc3)CC2)c2ccccc2O1 (stereo not given)
768	CN(C)C(=O)c1csc(S(=O)(=O)N2CCC(C(=O)N3CCN(c4ccccc4)CC3)CC2)c1
664	O=C(CSc1ccc(N2CCCC(C(=O)NC3CC3)C2)nn1)Nc1cccc(Br)c1 (stereo not given)
1130	Cc1c(C(=O)NC2CCCC2)cnn1-c1cc(-c2nc(C(C)(C)C)no2)ccn1
681	O=C(COc1cccc(Cl)c1)N1CCN(c2nc(CN3CCCCC3)cs2)CC1
638	O=C(Nc1ccccc1)c1nnc(CCCC(=O)N2CCN(c3ccccn3)CC2)s1
700	COc1ccc(-c2cc3n(n2)CCCN(C(=O)C2CCCO2)C3)cc1 (stereo not given)
644	COC(=O)CNC(=O)N1CCN(c2nc3ccccc3n2Cc2ccccc2)CC1
1180	Cc1cccc(Sc2nccnc2N2CCCC(C(=O)NCc3cccc(Cl)c3)C2)c1 (stereo not given)
618	COc1ccc(C(=O)Nc2cnc(N3CCOCC3)nc2)cc1
1130	Cc1ccc(C)c(N2CCN(S(=O)(=O)c3ccc(-c4nnc(C5CC5)o4)o3)CC2)c1
784	Cc1ccccc1CNC(=O)C1CCCN(c2nnc(C)c3c(C)n(-c4ccc(Cl)cc4)nc23)C1 (stereo not given)
